By solubility is commonly meant the dissolved amount per volume that the medium holds. Low values mean a poorly soluble substance, high ones a readily soluble substance.

Converted amounts (≈) assume the structure as drawn. Peptide text beside a SMILES is read from it.

The source of these data is paper PMC8063180 (Cell Reports. Physical Science, 2021).

One series can be described thus: physchem. It is filed as physicochemical. Conditions: for Fold lower critical concentration compared with AFA: at the highest measured temperature.
A short description of another series: Dynamic light scattering. The class given is physicochemical. As to conditions: pH 6.8, room temperature.
The format of series [1] is physicochemical. Conditions: for Effect of polyphenols (EGCG, TA, RA) on critical soluble concentration: increasing inhibitor ratio, dose-dependent.
For series [2] the following is noted: aqueous solution; cited from earlier work.
Setting [3] is: pH 6.8, Water solubility (critical soluble concentration), pure water, room temperature, pH 6.8.
Setting [4] is: water, room temperature, pH 6.8.

As to `N[C@@H](Cc1ccccc1)C(=O)N[C@@H](Cc1ccccc1)C(=O)N[C@@H](Cc1ccccc1)C(=O)O` [FFF, reference compound] (H-Phe-Phe-Phe-OH), the solubility in “physchem” (setting [3]) stood at 0.5 mM (≈ 0.23 mg/mL).
The same measure, in the same setting: with `CC(C)C[C@H](N)C(=O)N[C@@H](Cc1ccccc1)C(=O)O` [LF, reference compound] (H-Leu-Phe-OH) the figure was 19.4 mM (≈ 5.4 mg/mL).
As to `C[C@H](N)C(=O)N[C@@H](C)C(=O)N[C@@H](Cc1ccccc1)C(=O)O` [AAF] (H-Ala-Ala-Phe-OH), the DLS cluster size result was “approximately 4,000 nm” in “Dynamic light scattering” (100 mM in water) and “remained constant” in “Dynamic light scattering” (above 40 mM in water). In addition, in “physchem”, the “Fold lower critical concentration compared with AFA” value was approximately 6 fold. In “physchem” (setting [3]), the solubility at 2 min was 105 mM (≈ 32.3 mg/mL). Further, in series [1], the “Effect of polyphenols (EGCG, TA, RA) on critical soluble concentration” value is given as “significant increase”. The “Fold increase of solubility by TA” value in series [1] (peptide:TA 1:2, versus no inhibitor) was determined as 3 fold.
Turning to `C[C@H](N)C(=O)N[C@@H](Cc1ccccc1)C(=O)N[C@@H](C)C(=O)O` [AFA, Ala-Phe-Ala] (H-Ala-Phe-Ala-OH), the DLS cluster size entry in “Dynamic light scattering” (100 mM in water) is reported as “persisted”; in “Dynamic light scattering” (above 40 mM in water), “remained constant”. Further, the solubility worked out at 702 mM (≈ 216 mg/mL) in the series “physchem” (Water solubility, water, 70°C); 720 mM (≈ 221 mg/mL) in the series “physchem” (Water solubility, water, 90°C); 710 mM (≈ 218 mg/mL) in “physchem” (Water solubility, water, near the boiling point of water); 672 mM (≈ 207 mg/mL) in the series “physchem” (setting [3]). Further, the Minimal critical concentration in the series “physchem” (around pH 6–7, room temperature) is 668 mM. In the series “physchem” (pH approaching the pKa value of either terminus, room temperature), the Water solubility is recorded as 672 mM. For the same compound, in the series “physchem” (setting [4]), the “Fold higher solubility compared with AAF” value is 6 fold. Besides, in “physchem” (setting [4]), the “Fold higher solubility compared with FAA” value is 15 fold. Besides, the “Effect of inhibitors (EGCG, TA, RA) on solubility” value in series [1] (molar ratios 1:0.1–1:0.3) is “unable to significantly alter”. In addition, the Reported critical concentration entry in series [2] was “up to 10 mM”.
For the compound `CC(C)C[C@H](NC(=O)[C@@H](N)Cc1ccccc1)C(=O)O` [FL, reference compound] (H-Phe-Leu-OH), the solubility in the series “physchem” (setting [3]) amounted to 28.3 mM (≈ 7.88 mg/mL).
The compound `C[C@H](N)C(=O)N[C@@H](Cc1ccccc1)C(=O)N[C@@H](Cc1ccccc1)C(=O)O` [AFF, reference compound] (H-Ala-Phe-Phe-OH) displayed a solubility in the series “physchem” (setting [3]) of 98.3 mM (≈ 37.7 mg/mL). Further, the “Fold higher solubility compared with GFF” value in the series “physchem” (setting [4]) turned out to be 6 fold.
For the compound `C[C@H](NC(=O)[C@H](C)NC(=O)[C@@H](N)Cc1ccccc1)C(=O)O` [FAA] (H-Phe-Ala-Ala-OH), the DLS cluster size entry in the series “Dynamic light scattering” (above 40 mM in water) is given as “approximately 2000 nm”. The “Fold lower critical concentration compared with AFA” value in the series “physchem” is approximately 15 fold. The solubility in “physchem” (setting [3]) worked out at 42 mM (≈ 12.9 mg/mL). Moreover, the “Effect of polyphenols (EGCG, TA, RA) on critical soluble concentration” value in series [1] is reported as “significant increase”.
Take `N[C@@H](Cc1ccccc1)C(=O)N[C@@H](Cc1ccccc1)C(=O)O` [FF, reference compound] (H-Phe-Phe-OH): the concentration in solution in the series “physchem” (setting [3]) (solubility) was 8.1 mM (≈ 2.53 mg/mL).
For `NCC(=O)N[C@@H](Cc1ccccc1)C(=O)N[C@@H](Cc1ccccc1)C(=O)O` [GFF, reference compound] (H-Gly-Phe-Phe-OH), the solubility in the series “physchem” (setting [3]) worked out at 14.5 mM (≈ 5.36 mg/mL).
Regarding `O=C(O)[C@H](Cc1ccccc1)NC(=O)[C@H](Cc1ccccc1)NC(=O)[C@@H]1CCCN1` [PFF, reference compound] (H-Pro-Phe-Phe-OH), the concentration in solution in the series “physchem” (setting [3]) (solubility) came to 2.6 mM (≈ 1.06 mg/mL).
